Measured values from patent publication US12319652B2, “Salts and solid forms of (R)-1-(5-methoxy-1H-indol-1-yl)-N,N-dimethylpropan-2-amine” (priority 2021, dated 2025).

Experiment: Binary solvent evaporation crystallization of Compound 1 HCl
Procedure: A binary solvent evaporation crystallization panel was performed. Separate portions of Compound 1 HCl 50 mg) were dissolved in a primary solvent of water (500 μl per sample) and a secondary solvent—one of either acetone (250 μl, A), acetonitrile (250 μl, B), THF (250 μl, C) and methanol (250 μl, D).
Each vial was capped with aluminium foil, pieced and allowed to stand undisturbed until the evaporation was completed. Experimental details are included in Table 109.

Measured: Observations (t = 14 days @ ambient)

COc1ccc2c(ccn2C[C@@H](C)N(C)C)c1.Cl [Compound 1 HCl]
Solid: A: Water 10.0 vol + Acetone 250 μL | B: Water 10.0 vol + Acetonitrile 250 μL | C: Water 10.0 vol + THF 250 μL | D: Water 10.0 vol + Methanol 250 μL
